Legend:
[1] = Aqueous solubility determination (Millipore Multiscreen solubility filter plate, UV/vis); assay type: physicochemical; details: Universal Aqueous Buffer pH 7.4, 90 minutes at room temperature
Protocol: Aqueous Solubility Determination. The following procedure was used to obtain the aqueous solubility results summarized in Example 4. Step 1. Determination of optimal UV/vis wavelengths and generation of standard curves for a compound of interest: • (1) For eight standard calibration curves (one plate), prepare 34 mL of 50:50 (v:v) universal buffer:acetonitrile in a 50 mL tube. • (2) Using a multichannel pipet, dispense (in μL) the buffer:acetonitrile in a deep well plate as follows:
• (6) Cover plate with lid and shake (200-300 rpm) at room temperature for 20 minutes. • (7) Mix all wells by pipetting up and down 10 times. • (8) Transfer 120 μL from each well to a UV transparent plate. Cover and shake for 3-5 minutes. Remove any bubbles in the wells using a pipet. • (9) Read from 220 nm to 500 nm at 10 nm increments on a spectrophotometer (e.g., SpectraMax®).
Step 2. […]
Solubility Protocol: • (a) Add 285 μL of Universal Aqueous Buffer to desired wells of the Millipore™ Multiscreen® Solubility filter plate. • (b) Add 15 μL of 10 mM compound in DMSO to the appropriate wells. […] Remove any bubbles with a pipet. • (i) Measure the absorbance of each well in the plate on the spectrophotometer (UV/vis) at the desired wavelength. […]
The aqueous solubility of the compounds shown here was determined using the procedures outlined in Example 1.

NQO1 = assay: Nrf2 target gene induction, MDA-MB-435 (qPCR): NQO1; assay type: cell-based; details: Homo sapiens; MDA-MB-435, 250 nM, 16 hours, mRNA by qPCR
γ-GCS = assay: Nrf2 target gene induction, MDA-MB-435 (qPCR): γ-GCS; assay type: cell-based; details: Homo sapiens; MDA-MB-435, 250 nM, 16 hours, mRNA by qPCR
Protocol: (§1) Nrf2 target gene induction. MDA-MB-435 human melanoma cells were treated with vehicle (DMSO) or the indicated compounds and concentrations for 16 hours. HO-1, thioredoxin reductase-1 (TrxR1), γ-glutamylcysteine synthetase (γ-GCS), and ferritin heavy chain mRNA levels were quantified using qPCR and were normalized relative to a DMSO-treated sample run in parallel. Values are averages of duplicate wells. Primer sequences are as follows.

HO-1 = assay: Nrf2 target gene induction, MDA-MB-435 (qPCR): HO-1; assay type: cell-based; details: Homo sapiens; MDA-MB-435, 250 nM, 16 hours, mRNA by qPCR
Protocol: as §1

RAW264.7 macrophages = assay: Cell viability of RAW264.7 macrophages (WST-1 reagent); assay type: cell-based, mouse; details: Mus musculus, RAW264.7, 24 h, cell viability, RAW264.7, 20 ng/ml IFNγ 24 hours, WST-1 reagent; read-out: RAW264.7 (20 ng/ml IFNγ) WST-1 IC50
Protocol: (§2) FIGS. 1-4, 6 and 8. Inhibition of NO Production. RAW264.7 macrophages were pre-treated with DMSO or drugs at various concentrations (nM) for 2 hours, then treated with 20 ng/ml IFNγ for 24 hours. NO concentration in media was determined using a Griess reagent system; cell viability was determined using WST-1 reagent.
(§3) Nitric Oxide production and cell viability. RAW264.7 macrophages were pre-treated with DMSO or drugs for 2 hours, then treated with recombinant mouse IFNγ (Sigma) for 24 hours. NO concentration in media was determined using the Griess reagent system (Promega). Cell viability was determined using WST-1 reagent (Roche).

[2] = test system: NO production in RAW264.7 macrophages; assay: Inhibition of NO production in IFNγ-treated RAW264.7 macrophages (Griess reagent); assay type: cell-based, mouse; details: Mus musculus, RAW264.7, RAW264.7 macrophages pre-treated 2 hours, then 20 ng/ml IFNγ for 24 hours
Protocol: as §2, §3

[3] = TP levels in mouse brain after feeding in diet (LC/MS); assay type: in vivo; details: CD-1 mice fed 200 or 400 mg/kg diet for 3.5 days
Protocol: FIG. 7. […] CD-1 mice were fed either 200 or 400 mg/kg diet of either TP-319 or TP-500 for 3.5 days, and TP levels in the brains of the mice were analyzed by LC/MS. The structures of TP-319 and TP-500 are shown herein.

| Aqueous Solubility [1] [µM] | IC50 [2] [nM] | Compound | fold induction at 0.25 µM (NQO1) | fold induction at 0.25 µM (γ-GCS) | fold induction at 0.25 µM (HO-1) | IC50 (RAW264.7 macrophages) [nM] | TP levels in the brains of the mice [3] |
| --- | --- | --- | --- | --- | --- | --- | --- |
| 163.6 | – | CC1(C)CC[C@]2(N)CC[C@]3(C)[C@H](C(=O)C[C@@H]4[C@@]5(C)C=C(C#N)C(=O)C(C)(C)[C@@H]5CC[C@]43C)[C@@H]2C1 [Compound 63198] | – | – | – | – | – |
| 9.49 | – | CC1(C)CC[C@]2(N)CC[C@]3(C)[C@H](C(=O)C[C@@H]4[C@@]5(C)C=C(C#N)C(=O)C(C)(C)[C@@H]5CC[C@]43C)[C@@H]2C1 [Compound 63208] | – | – | – | – | – |
| – | ~15 | CC1(C)CC[C@]2(CCO)CC[C@]3(C)[C@H](C(=O)C[C@@H]4[C@@]5(C)C=C(C#N)C(=O)C(C)(C)[C@@H]5CC[C@]43C)[C@@H]2C1 [Compound 63231, (4aR,6aR,6bR,8aR,12aS,12bR,14aR,14bR)-8a-(2-hydroxyethyl)-4,4,6a,6b,11,11,14b-heptamethyl-3,13-dioxo-3,4,4a,5,6,6a,6b,7,8,8a,9,10,11,12,12a,12b,13,14,14a,14b-icosahydropicene-2-carbonitrile] | 2.1 | 5 | 1.2 | > 200 | – |

Continued, compound first:

| Compound | Aqueous Solubility [1] [µM] | IC50 [2] [nM] | fold induction at 0.25 µM (NQO1) | fold induction at 0.25 µM (γ-GCS) | fold induction at 0.25 µM (HO-1) | IC50 (RAW264.7 macrophages) [nM] | TP levels in the brains of the mice [3] |
| --- | --- | --- | --- | --- | --- | --- | --- |
| Cc1cc(CNC[C@]23CCC(C)(C)C[C@H]2[C@H]2C(=O)C[C@@H]4[C@@]5(C)C=C(C#N)C(=O)C(C)(C)[C@@H]5CC[C@@]4(C)[C@]2(C)CC3)no1 [Compound 63232, (4aR,6aR,6bR,8aS,12aS,12bR,14aR,14bR)-4,4,6a,6b,11,11,14b-heptamethyl-8a-(((5-methylisoxazol-3-yl)methylamino)methyl)-3,13-dioxo-3,4,4a,5,6,6a,6b,7,8,8a,9,10,11,12,12a,12b,13,14,14a,14b-icosahydropicene-2-carbonitrile] | – | ~20 | 3.8 | 13.6 | 5 | > 200 | – |
| CC1(C)CC[C@]2(CNC(=O)OC(C)(C)C)CC[C@]3(C)[C@H](C(=O)CC4[C@@]5(C)C=C(C#N)C(=O)C(C)(C)C5CC[C@]43C)[C@@H]2C1 (stereo partly drawn) [Compound 63253, tert-butyl((4aS,6aR,6bR,12aR,14aR,14bS)-11-cyano-2,2,6a,6b,9,9,12a-heptamethyl-10,14-dioxo-1,2,3,4,4a,5,6,6a,6b,7,8,8a,9,10,12a,12b,13,14,14a,14b-icosahydropicen-4a-yl)methylcarbamate] | – | ~20 | 1.5 | 3 | 2 | ~200 | – |
| CC1(C)CC[C@]2(C(=O)NCC(F)(F)F)CC[C@]3(C)[C@H](C(=O)C=C4[C@@]5(C)C=C(C#N)C(=O)C(C)(C)[C@@H]5CC[C@]43C)[C@@H]2C1 [TP-500] | – | – | – | – | – | – | Higher Levels in Mouse Brain than CDDO-EA (TP-319) |

— US8394967B2, “Antioxidant inflammation modulators: C-17 homologated oleanolic acid derivatives” (Reata Pharmaceuticals, Inc., priority 2008, dated 2013)
